The IC50 is the concentration needed to halve the response being measured. High values mean lower potency, low ones higher potency.

This note sets out measurements from US20230406859A1, “METHOTREXATE ANALOGS AND METHODS OF USE” (The United States of America, as represented by the …, priority 2020, published 2023).

One data set deals with HBL1 cell line. The data set can be described thus: CellTiter-Glo cell viability (cytotox), HBL1 cell line, 72 hours. The class given is cell-based. To be noted: HBL1 cell line, CellTiter-Glo; unit inferred. As to the method:
CellTiter-Glo viability assays: Five μL of cells (2500 cells) from the 12-well plate culture were plated into white 1536-well plates (Greiner, Monroe, NC, 789173-F) in 6 replicates. CellTiter-Glo Luminescent Cell Viability Assay (CTG) (Promega, G7572), 2.5 μL/well reagent was added with a BioRAPTR FRD (Beckman Coulter, Sykesville, MD), plates were incubated in the dark at ambient temperature for 10 min, and luminescence measured with a ViewLux 1430 Ultra HTS (Perkin Elmer, Waltham, MA).
(In general: In ATP-based viability assays light output follows the ATP content of the culture.)

Data set [1] has as its target T1, human DHFR-HiBiT fusion protein (Homo sapiens, UniProt P00374).
T1 construct: expressed in transfected cells; host or cells: HBL1 cells retrovirally infected with pBMN-Ires-Lyt-2 carrying DHFR-HiBiT
T1 sequence (P00374 with tags, fused parts or gaps): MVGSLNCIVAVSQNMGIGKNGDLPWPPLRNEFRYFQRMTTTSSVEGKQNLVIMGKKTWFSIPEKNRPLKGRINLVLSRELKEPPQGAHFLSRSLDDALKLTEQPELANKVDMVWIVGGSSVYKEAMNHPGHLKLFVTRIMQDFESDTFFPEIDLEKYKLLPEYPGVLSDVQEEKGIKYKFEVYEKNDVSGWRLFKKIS
The data set can be described thus: DHFR-HiBiT assay (high-throughput DHFR abundance) in HBL1 cells. The class given is cell-based. To be noted: for Dmax: % change in untreated cellular DHFR level (control), negative = degradation, positive = stabilization, HBL1, 24 h, read-out: efficacy (%). From the text:
The human DHFR-HiBiT construct was synthetized (Bio Basic) and cloned into the retroviral vector pBMN-Ires-Lyt-2 (provided by G. Nolan, Stanford University, Stanford, CA) which expresses the coding region of mouse CD8a (Lyt-2) using the restriction sites BamHI/XhoI. All constructs were sequenced to validate authenticity. Infected cells were positively selected based on murine CD8a expression using magnetic beads (Miltenyi Biotech).
Cell culture: Human embryonic kidney HEK293T cells were maintained in DMEM (Gibco) supplemented with 10% fetal bovine serum (Hyclone), 2 mmol/L 1-glutamine, HEPES (Gibco) and 100 U/mL penicillin/streptomycin (Invitrogen). The lymphoma cell line HBL1 were maintained in RPMI (Life Technology) supplemented with 5% fetal bovine serum (Hyclone), 2 mmol/L L-glutamine, HEPES (Gibco) and 100 U/mL penicillin/streptomycin (Invitrogen).
Transfection and retroviral infections: Transfections were performed using Lipofectamine 2000 (Invitrogen) according to the manufacturer's protocol. For retroviral infections, viruses were produced in HEK293T cells and used to infect HBL1 cell line. […] Supernatants containing the retrovirus were collected and filtered at 48- and 72-hours post-transfection. HBL1 cells were centrifuged and then resuspended with the retroviral supernatant with 8 μg/ml of polybrene. The cells were spin-infected twice on consecutive days at 2,500 rpm, at RT, for 90 minutes.
Lytic HiBiT Detection: Cells were plated in solid white 1536-well tissue culture plates (Greiner), at the concentration of 2000 cells/well. After treatment, an equal volume of Nano-Glo HiBiT Lytic Reagent (Promega) containing the substrate furimazine and Large BiT (LgBiT) was added to the cells according to the manufacturer's protocol. Cells were incubated for 10 min at room temperature, and luminescence was measured using a Perkin Elmer ViewLux microplate imager with 30 seconds of exposure time.
Background: With HiBiT, luminescence reflects the tagged protein that the partner subunit can reach.

`COC(=O)[C@H](CCC(=O)NCCCCCCCCNc1cccc2c1C(=O)N(C1CCC(=O)NC1=O)C2=O)NC(=O)c1ccc(N(C)Cc2cnc3nc(N)nc(N)c3n2)cc1` (stereo partly drawn) [NCGC00687472] showed an IC50 in the data set with HBL1 cell line of 12.2 µM. Moreover, in data set [1], the Dmax is 62.9%.
In the same order, the values of `COC(=O)[C@H](CCC(=O)NCCCCCCCCNc1cccc2c1C(=O)N(C1CCC(=O)NC1=O)C2=O)NC(=O)CC[C@H](NC(=O)CC[C@H](NC(=O)CC[C@H](NC(=O)c1ccc(N(C)Cc2cnc3nc(N)nc(N)c3n2)cc1)C(=O)O)C(=O)OC)C(=O)OC` (stereo partly drawn) [NCGC00687807, (2S,7S,12S,17S)-2-(4-(((2,4-diaminopteridin-6-yl)methyl)(methyl)amino)benzamido)-29-((2-(2,6-dioxopiperidin-3-yl)-1,3-dioxoisoindolin-4-yl)amino)-7,12,17-tris(methoxycarbonyl)-5,10,15,20-tetraoxo-6,11,16,21-tetraazanonacosanoic acid] are 20.8 µM and 48.1%.
In turn, `Nc1nc(N)c2nc(CN(CCCCCCNC(=O)CCOCCOCCOCCOCCOc3cccc4c3C(=O)N(C3CCC(=O)NC3=O)C4=O)c3ccc(C(=O)N[C@@H](CCC(=O)O)C(=O)O)cc3)cnc2n1` (stereo partly drawn) [NCGC00690395, (4-(((2,4-diaminopteridin-6-yl)methyl)(1-((2-(2,6-dioxopiperidin-3-yl)-1,3-dioxoisoindolin-4-yl)oxy)-15-oxo-3,6,9,12-tetraoxa-16-azadocosan-22-yl)amino)benzoyl)glutamic acid] gave an IC50 with HBL1 cell line of 33.4 µM. Also, the Dmax in data set [1] was determined as 32.8%.
In the same order, the values of `COC(=O)[C@H](CCC(=O)NCCCCCCCCNc1cccc2c1C(=O)N(C1CCC(=O)NC1=O)C2=O)NC(=O)CC[C@H](NC(=O)c1ccc(N(C)Cc2cnc3nc(N)nc(N)c3n2)cc1)C(=O)O` (stereo partly drawn) [NCGC00687576] are 17 µM and 62.3%.
In the case of `CN(Cc1cnc2nc(N)nc(N)c2n1)c1ccc(C(=O)N[C@@H](CCC(=O)O)C(=O)NCCCNc2cccc3c2C(=O)N(C2CCC(=O)NC2=O)C3=O)cc1` (stereo partly drawn) [NCGC00690412, (4S)-4-(4-(((2,4-diaminopteridin-6-yl)methyl)(methyl)amino)benzamido)-5-((3-((2-(2,6-dioxopiperidin-3-yl)-1,3-dioxoisoindolin-4-yl)amino)propyl)amino)-5-oxopentanoic acid], the IC50 with HBL1 cell line was found to be 38.6 µM.
Consider `CN1C(=O)CCC(N2C(=O)c3cccc(NCCCCCCCCNC(=O)CC[C@H](NC(=O)c4ccc(N(C)Cc5cnc6nc(N)nc(N)c6n5)cc4)C(=O)O)c3C2=O)C1=O` (stereo partly drawn) [NCGC00687847, N2-(4-(((2,4-diaminopteridin-6-yl)methyl)(methyl)amino)benzoyl)-N5-(8-((2-(1-methyl-2,6-dioxopiperidin-3-yl)-1,3-dioxoisoindolin-4-yl)amino)octyl)-L-glutamine], for which inhibition in the data set on HBL1 cell line was half-maximal at 25.4 µM (IC50). In addition, the Dmax in data set [1] was -93.2%. Also, the DC50 in data set [1] (HBL1 cells expressing DHFR-HiBiT, 24 h, degradation or stabilization potency, average of N = 2-5, read-out: Ave EC50) turned out to be 3 µM.
In the case of `COC(=O)[C@H](CCC(=O)NCCCCCCCCNc1cccc2c1C(=O)N(C1CCC(=O)NC1=O)C2=O)NC(=O)CC[C@H](NC(=O)CC[C@H](NC(=O)c1ccc(N(C)Cc2cnc3nc(N)nc(N)c3n2)cc1)C(=O)O)C(=O)OC` (stereo partly drawn) [NCGC00687569, N2-(4-(((2,4-diaminopteridin-6-yl)methyl)(methyl)amino)benzoyl)-N5-((2S)-5-(((2S)-5-((8-((2-(2,6-dioxopiperidin-3-yl)-1,3-dioxoisoindolin-4-yl)amino)octyl)amino)-1-methoxy-1,5-dioxopentan-2-yl)amino)-1-methoxy-1,5-dioxopentan-2-yl)-L-glutamine], the IC50 in the data set on HBL1 cell line is 21.5 µM. Besides, in data set [1], the Dmax was found to be 53.9%.
In turn, `CN(Cc1cnc2nc(N)nc(N)c2n1)c1ccc(C(=O)N[C@@H](CCC(=O)O)C(=O)NCCOCCOCCOCCNC(=O)COc2cccc3c2C(=O)N(C2CCC(=O)NC2=O)C3=O)cc1` (stereo partly drawn) [NCGC00690069, (17S)-17-(4-(((2,4-diaminopteridin-6-yl)methyl)(methyl)amino)benzamido)-1-((2-(2,6-dioxopiperidin-3-yl)-1,3-dioxoisoindolin-4-yl)oxy)-2,16-dioxo-6,9,12-trioxa-3,15-diazaicosan-20-oic acid] yielded an IC50 in the data set with HBL1 cell line of 35.8 µM.
As for `Cc1ncsc1-c1ccc(CNC(=O)[C@@H]2C[C@@H](O)CN2C(=O)C(NC(=O)CCOCCOCCOCCOCCC(=O)NCCCCCCN(Cc2cnc3nc(N)nc(N)c3n2)c2ccc(C(=O)N[C@@H](CCC(=O)O)C(=O)O)cc2)C(C)(C)C)cc1` (stereo partly drawn) [NCGC00690398, (4-(((2,4-diaminopteridin-6-yl)methyl)(3-((2S,4R)-4-hydroxy-2-((4-(4-methylthiazol-5-yl)benzyl)carbamoyl)pyrrolidine-1-carbonyl)-2,2-dimethyl-5,20-dioxo-8,11,14,17-tetraoxa-4,21-diazaheptacosan-27-yl)amino)benzoyl)glutamic acid], the IC50 in the data set with HBL1 cell line was 36.7 µM. In addition, the Dmax in data set [1] turned out to be 26%.
With `CN(Cc1cnc2nc(N)nc(N)c2n1)c1ccc(C(=O)NC(CCC(=O)O)C(=O)NCCCCCCCCNc2cccc3c2C(=O)N(C2CCC(=O)NC2=O)C3=O)cc1` (stereo not drawn) [NCGC00690075, 4-(4-(((2,4-diaminopteridin-6-yl)methyl)(methyl)amino)benzamido)-5-((8-((2-(2,6-dioxopiperidin-3-yl)-1,3-dioxoisoindolin-4-yl)amino)octyl)amino)-5-oxopentanoic acid], the half-inhibitory concentration (IC50) in the data set with HBL1 cell line is 70 µM.
As to `COC(=O)[C@H](CCC(=O)NCCCCCCCCNc1cccc2c1C(=O)N(C1CCC(=O)NC1=O)C2=O)NC(=O)CC[C@H](NC(=O)CC[C@H](NC(=O)CC[C@H](NC(=O)CC[C@H](NC(=O)c1ccc(N(C)Cc2cnc3nc(N)nc(N)c3n2)cc1)C(=O)O)C(=O)OC)C(=O)OC)C(=O)OC` (stereo partly drawn) [NCGC00687811, (2S,7S,12S,17S,22S)-2-(4-(((2,4-diaminopteridin-6-yl)methyl)(methyl)amino)benzamido)-34-((2-(2,6-dioxopiperidin-3-yl)-1,3-dioxoisoindolin-4-yl)amino)-7,12,17,22-tetrakis(methoxycarbonyl)-5,10,15,20,25-pentaoxo-6,11,16,21,26-pentaazatetratriacontanoic acid], the IC50 in the data set on HBL1 cell line is 22.4 µM. In addition, the Dmax in data set [1] was determined as 40.5%.
On to `CN(Cc1cnc2nc(N)nc(N)c2n1)c1ccc(C(=O)N[C@@H](CCC(=O)O)C(=O)NCCOCCOCCNc2cccc3c2C(=O)N(C2CCC(=O)NC2=O)C3=O)cc1` (stereo partly drawn) [NCGC00690407, (4S)-4-(4-(((2,4-diaminopteridin-6-yl)methyl)(methyl)amino)benzamido)-5-((2-(2-(2-((2-(2,6-dioxopiperidin-3-yl)-1,3-dioxoisoindolin-4-yl)amino)ethoxy)ethoxy)ethyl)amino)-5-oxopentanoic acid], for which the IC50 in the data set on HBL1 cell line stood at 32.9 µM.
In the data set on HBL1 cell line, `Cc1ncsc1-c1ccc(CNC(=O)[C@@H]2C[C@@H](O)CN2C(=O)C(NC(=O)CCOCCOCCC(=O)NCCCCCCN(Cc2cnc3nc(N)nc(N)c3n2)c2ccc(C(=O)N[C@@H](CCC(=O)O)C(=O)O)cc2)C(C)(C)C)cc1` (stereo partly drawn) [NCGC00690397, (4-(((2,4-diaminopteridin-6-yl)methyl)(3-((2S,4R)-4-hydroxy-2-((4-(4-methylthiazol-5-yl)benzyl)carbamoyl)pyrrolidine-1-carbonyl)-2,2-dimethyl-5,14-dioxo-8,11-dioxa-4,15-diazahenicosan-21-yl)amino)benzoyl)glutamic acid] registered an IC50 of 28.7 µM. Moreover, the Dmax in data set [1] turned out to be 64.1%.
With `Nc1nc(N)c2nc(CN(CCCCCCNC(=O)COc3cccc4c3C(=O)N(C3CCC(=O)NC3=O)C4=O)c3ccc(C(=O)N[C@@H](CCC(=O)O)C(=O)O)cc3)cnc2n1` (stereo partly drawn) [NCGC00690396, (4-(((2,4-diaminopteridin-6-yl)methyl)(6-(2-((2-(2,6-dioxopiperidin-3-yl)-1,3-dioxoisoindolin-4-yl)oxy)acetamido)hexyl)amino)benzoyl)glutamic acid], in the data set with HBL1 cell line, it took 26.6 µM to reach half-maximal inhibition (IC50).
